{"source": "patent US20090176696A1", "about": "“Methods And Compositions For Modulating An Immune Response” (priority 2006, published 2009)", "key": {"[1]": {"test_system": "KLH-specific T cell and antibody responses", "assay": "TCT injection 6 hours before immunisation with KLH and E. coli heat labile enterotoxin (LT); ex vivo lymph node responses and antibody titres", "type": "in vivo, BALB/c mice", "description": "Groups of 5 BALB/c mice were injected subcutaneously into the flank with PBS or TCT (10 μg/mouse) and then immunised with KLH (20 μg/mouse) or KLH with E. coli heat labile enterotoxin (LT) (100 ng/mouse) 6 hours later. The T cell response was assessed 14 days later from local inguinal lymph node cells stimulated with antigen ex vivo.\nLymph node (FIG. 10) cell suspensions were cultured in the presence of various concentrations of KLH (2, 10, 50 μg/ml) and PMA/CD3 or medium were used as positive and negative controls respectively. Supernatants were collected 72 hours later. Concentrations of IFN-gamma, IL-10, IL-4 and IL-5 in supernatants were evaluated by ELISA (FIG. 10). KLH-specific antibody titres were also determined by ELISA (FIG. 11). Results are the mean responses (±SD) for 5 mice assessed individually in triplicate."}, "[2]": {"test_system": "KLH-specific T cell responses", "assay": "Adoptive transfer of TCT-treated DCs; ex vivo lymph node T cell responses", "type": "in vivo, BALB/c mice", "description": "Bone marrow-derived DCs from BALB/c mice were cultured in 2% heat inactivated normal mouse sera and 40 ng/ml recombinant GM-CSF for 12 days. DCs were harvested and cultured O/N at a concentration of 1×10^6 cells/ml. DCs were then incubated with KLH (20 μg/ml) alone, KLH (20 μg/ml) and TCT (10 μg/ml), KLH (20 μg/ml) plus Pam-3Csk (TLR2 agonist; 500 ng/ml), or with KLH (20 μg/ml) and TCT (10 μg/ml) and Pam-3Csk (500 ng/ml). After 2 hours incubation, cells were washed and injected sub-cutaneously (s.c.) into the flank of BALB/c mice (1×10^5 cells/mouse). T cell responses were assessed 14 days later from pooled local inguinal lymph node cells stimulated with antigen ex-vivo.\nLymph node cells from each treatment group were pooled and cultured in the presence of KLH (2, 10 and 50 μg/ml) or PMA/CD3 or medium, as positive and negative controls respectively. Supernatants were collected 72 h later for cytokine analysis (IFN-γ, IL-10, IL-4 and IL-5 were evaluated by specific ELISA FIG. 12). Fresh medium was added to the wells and cells were incubated overnight. At day 4, 2 μCi of ^3H thymidine was added to each well. Plates were incubated for a further 6 hours, after which cells and ^3H incorporation was determined (FIG. 12)."}, "[3]": {"test_system": "BMDC with CD4+ T cells from OVA TCR transgenic mice", "assay": "TCT pre-treated BMDC cultured with OVA and CD4+ T cells from OVA TCR Tg mice; cytokines by ELISA", "type": "cell-based", "details": "DC pre-treated with TCT 10 μg/ml for 2 hours; supernatant after 4 days", "description": "Dendritic cells act as antigen presenting cells and also serve to direct the induction of distinct T cell responses. Therefore, we examined the influence of TCT on dendritic cells and their ability to promote T cell responses in vitro. Bone marrow-derived dendritic cells DC (BMDC) were cultured with CD4^+ T cells (4×10^5) from OVA T cell receptor (TCR) transgenic (Tg) mice. BMDC were pre-treated with TCT (10 μg/ml) or medium only for 2 hours prior to the addition of antigen (OVA 0.2-5 μg/ml) and CD4^+ T cells purified from the spleens of OVA TCR Tg mice. OVA-specific cytokine production was measured in supernatant taken after 4 days by ELISA."}, "[4]": {"test_system": "Experimental autoimmune encephalomyelitis (EAE)", "assay": "Experimental autoimmune encephalomyelitis (EAE) induced with MOG peptide 35-55 in CFA", "type": "in vivo, C57BL/6 mice", "description": "EAE was induced in C57BL/6 mice by subcutaneous immunisation with 150 μg MOG peptide 35-55 emulsified in CFA supplemented with 5 mg/ml of killed Mycobacterium tuberculosis. Mice were injected intraperitoneally (i.p) with 500 ng of pertussis toxin (PT) on days 0 and 2. Mice were injected with either PBS or TCT (10 μg/mouse) s.c in the flank on day 1 post EAE induction and every 3-4 days thereafter (FIG. 15). Mice were observed daily for signs of clinical disease. Disease severity was recorded as follows: grade 0, normal; grade 1, limp tail; grade 2, wobbly gait; grade 3, hind limb weakness; grade 4, hind limb paralysis and grade 5, tetraparalysis/death."}, "[5]": {"test_system": "Graft-versus-host disease (GVHD)", "assay": "Parent-to-F1 hybrid graft-versus-host disease (GVHD) model", "type": "in vivo, BALB/c×C57Bl/6 F1 hybrid mice", "details": "TCT 10 μg/mouse s.c. footpad 2 hours prior to induction; day 7", "text": "Graft-versus-host disease (GVHD) is a major life-threatening complication of bone marrow transplantation, where T cells from the donor graft attack host cells leading to a condition that is only treatable using potent immunosuppressive drugs. It is possible to examine the potential of therapies for the prevention or treatment of GVHD in humans by testing their efficacy using a simple GVHD model in mice. The parent-to-F1 hybrid GVHD murine model involves the transfer of parental lymphocytes into non-conditioned F1 hybrid mice. Using this strain combination the host T cells cannot actively resist the donor cells.\nGVHD was induced by transfer of 0.5×10^7 spleen cells from donor C57BL/6 mice into the footpads of BALB/c×C57Bl/6 F1 hybrid mice. Recipient mice were injected s.c into the footpad with PBS or TCT (10 μg/mouse) 2 hours prior to induction of GVHD. After 7 days, the popliteal lymph nodes were removed, weighed and cell numbers were recorded."}, "[6]": {"test_system": "hamster tracheal epithelial (HTE) cells", "details": "isolated cultured HTE cells; cited from earlier work"}, "[7]": {"details": "TCT 10 μg/mouse 6 hours before KLH and LT"}, "[8]": {"details": "TCT 10 μg/mouse 6 hours before KLH with LT"}, "[9]": {"details": "DCs treated with KLH and Pam-3Csk, also treated with TCT"}, "[10]": {"details": "KLH treated DCs also treated with TCT"}}}
{"smiles": "CC(=O)NC1C(OC2C3COC(O3)C(NC(C)=O)C2OC(C)C(=O)NC(C)C(=O)NC(CCC(=O)NC(CCCC(N)C(=O)NC(C)C(=O)O)C(=O)O)C(=O)O)OC(CO)C(O)C1O", "note": "(stereo not drawn) [TCT, N-acetylglucosaminyl-1,6-anhydro-N-acetylmuramylalanyl-γ-glutamyldiaminopimelylalanine]", "values": [{"measurement": "antigen-specific IFN-gamma production by lymph node cells", "setting": "[1]; [7]", "result": "significantly impaired"}, {"measurement": "antigen-specific IL-4 production by lymph node cells", "setting": "[1]; [7]", "result": "significantly impaired"}, {"measurement": "KLH-specific IL-5 production, lymph node cells", "setting": "[1]; [8]", "result": "reduction"}, {"measurement": "KLH-specific IL-10 production, lymph node cells", "setting": "[1]; [8]", "result": "reduction"}, {"measurement": "antigen-specific IgG1 titres", "setting": "[1]; TCT 6 hours before LT and KLH", "result": "no effect"}, {"measurement": "antigen-specific IgG2a titres", "setting": "[1]; TCT 6 hours before LT and KLH", "result": "no effect"}, {"measurement": "total KLH-specific IgG production", "setting": "[1]; TCT 6 hours before LT and KLH", "result": "no effect"}, {"measurement": "antigen-specific IFN-gamma production, lymph node cells", "setting": "[2]; [9]", "result": "completely abolished"}, {"measurement": "antigen-specific IL-10 production, lymph node cells", "setting": "[2]; [9]", "result": "completely abolished"}, {"measurement": "KLH-specific IFN-gamma production, lymph node cells", "setting": "[2]; DCs treated with TCT and KLH", "result": "No KLH-specific IFN-gamma, IL-10 and IL-4 production was detected"}, {"measurement": "KLH-specific proliferation by lymph node cells", "setting": "[2]; DCs treated with TCT and Pam-3Csk with KLH vs Pam-3Csk with KLH", "result": "profound impairment"}, {"measurement": "antigen-specific IL-4 production, lymph node cells", "setting": "[2]; [10]", "result": "abolished"}, {"measurement": "antigen-specific IL-10 production, lymph node cells", "setting": "[2]; [10]", "result": "abolished"}, {"measurement": "proliferation by lymph node cells", "setting": "[2]; KLH treated DCs also treated with TCT vs KLH treated DCs alone", "result": "almost abolished"}, {"measurement": "Antigen-specific IL-5 production, LN cells", "setting": "[2]; all treatment groups", "result": "not above background concentrations"}, {"measurement": "OVA-specific IFN-γ production", "setting": "[3]", "result": "did not affect"}, {"measurement": "OVA-specific IL-4 production", "setting": "[3]", "result": "significantly reduced"}, {"measurement": "OVA-specific IL-5 production", "setting": "[3]", "result": "significantly reduced"}, {"measurement": "OVA-specific IL-13 production", "setting": "[3]", "result": "significantly reduced"}, {"measurement": "first clinical signs of disease post induction", "setting": "[4]; TCT 10 μg/mouse s.c. day 1 and every 3-4 days, untreated mice 12 days", "result": 18, "unit": "days"}, {"measurement": "severity of disease", "setting": "[4]; TCT 10 μg/mouse s.c., versus untreated control mice", "result": "lower than that observed in the untreated control mice"}, {"measurement": "total cells counts in the lymph node of the recipient mice", "setting": "[5]", "result": "significantly reduced"}, {"measurement": "weight of the lymph node of the recipient mice", "setting": "[5]", "result": "significantly reduced"}, {"measurement": "DNA synthesis", "setting": "[6]", "result": "inhibit DNA synthesis"}]}
